Assay results reported in ChEMBL document CHEMBL3046269, “The repelling effect of plant secondary metabolites on water voles, Arvicola amphibius” (2013).
The source made the active and inactive calls. No cut-off for these calls is given here.

Tests used:
Arvicola amphibius [1] = test: Herbivore repellent activity against adult Arvicola amphibius assessed as duration of stay within test box with apple pieces by T-maze test (reference value: 85.30 +/-13.79%); format: functional
Arvicola amphibius [2] = test: Herbivore repellent activity against adult Arvicola amphibius assessed as time required to enter the test box with apple pieces for first time by T-maze test (reference value: 268.50 +/-417.85 secs); format: functional
Arvicola amphibius [3] = test: Herbivore repellent activity against adult Arvicola amphibius assessed as decrease in frequency of entry of test box with apple pieces by T-maze test; format: functional, organism-based
Arvicola amphibius [4] = test: Herbivore repellent activity against adult Arvicola amphibius assessed as duration of stay within test box with apple pieces by T-maze test (reference value: 59.19 +/-19.83%); format: functional
Arvicola amphibius [5] = test: Herbivore repellent activity against adult Arvicola amphibius assessed as time required to enter the test box with apple pieces for first time by T-maze test (reference value: 277.50 +/-166.07 secs); format: functional
Arvicola amphibius [6] = test: Herbivore repellent activity against adult Arvicola amphibius assessed as duration of stay within test box with apple pieces by T-maze test (reference value: 56.72 +/-13.89%); format: functional
Arvicola amphibius [7] = test: Herbivore repellent activity against adult Arvicola amphibius assessed as time required to enter the test box with apple pieces for first time by T-maze test (reference value: 380.25 +/-321.70 secs); format: functional
Arvicola amphibius [8] = test: Herbivore repellent activity against adult Arvicola amphibius assessed as time required to enter the test box with apple pieces for first time by T-maze test (reference value: 438.43 +/-312.37 secs); format: functional
Arvicola amphibius [9] = test: Herbivore repellent activity against adult Arvicola amphibius assessed as duration of stay within test box with apple pieces by T-maze test (reference value: 59.20 +/-31.75%); format: functional
Arvicola amphibius [10] = test: Herbivore repellent activity against adult Arvicola amphibius assessed as duration of stay within test box with apple pieces by T-maze test (reference value: 75.53 +/-16.57%); format: functional
Arvicola amphibius [11] = test: Herbivore repellent activity against adult Arvicola amphibius assessed as time required to enter the test box with apple pieces for first time by T-maze test (reference value: 240.75 +/-184.07 secs); format: functional

CCCCCCCCCC(C)=O [METHYL NONYL KETONE]
Activity (Arvicola amphibius [1]): 14.7% | Time (Arvicola amphibius [2]): 888.38 s | inhibition (Arvicola amphibius [3]): Active

CC(C)=CCC/C(C)=C/CO [GERANIOL]
Activity (Arvicola amphibius [4]): 40.8% | Time (Arvicola amphibius [5]): 326.38 s

CCCCCCCCC(=O)O [NONANOATE]
Activity (Arvicola amphibius [6]): 43.28% | Time (Arvicola amphibius [7]): 507.75 s

CCCS [1-PROPANETHIOL]
Time (Arvicola amphibius [8]): 996.29 s | Activity (Arvicola amphibius [9]): 40.8%

CCCCC(=O)O [VALERIC ACID]
Activity (Arvicola amphibius [10]): 24.47% | Time (Arvicola amphibius [11]): 769.13 s
